Measurements reported in patent publication US9120791B2, “Indolizine compounds, a process for their preparation and pharmaceutical compositions containing them” (LES LABORATOIRES SERVIER, priority 2012, dated 2015).
Structures can show the parent of a compound that is named as a salt.

Legend:
[1] = target: Bcl-2 protein (Homo sapiens (Human), UniProt P10415); test: Inhibition of Bcl-2 by the fluorescence polarisation technique; format: binding; details: fluorescence polarisation test; concentration that inhibits fluorescence polarisation by 50%; read-out: IC50 (nM) Bcl-2 FP
Description: The fluorescence polarisation tests were carried out on microplates (384 wells). […] After incubation for 2 hours, the fluorescence polarisation is measured.

[2] = test system: RS4;11 leukaemia tumour line; test: In vitro cytotoxicity (Microculture Tetrazolium Assay, 48 hours); format: cell-based; details: Homo sapiens, RS4;11 cells, 48 hours exposure, MTT, concentration that inhibits cell viability by 50%, read-out: IC50 (nM) MTT RS4
Description: The cytotoxicity studies were carried out on the RS4;11 leukaemia tumour line.
The cells are distributed onto microplates and exposed to the test compounds for 48 hours.

Bcl-2 protein, sequence (P10415 whole entry): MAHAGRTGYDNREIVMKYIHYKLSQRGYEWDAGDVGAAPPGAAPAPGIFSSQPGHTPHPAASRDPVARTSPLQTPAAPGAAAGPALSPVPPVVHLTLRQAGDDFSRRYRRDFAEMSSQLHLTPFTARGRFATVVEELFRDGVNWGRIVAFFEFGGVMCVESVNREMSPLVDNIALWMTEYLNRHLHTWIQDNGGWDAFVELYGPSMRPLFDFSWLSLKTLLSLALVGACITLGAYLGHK

| IC50 [1] | Compound | IC50 [2] |
| --- | --- | --- |
| 3 nM | Cn1ncc2cc(N(C(=O)c3cc(-c4cc5c(cc4C(=O)N4Cc6ccccc6C[C@H]4CN4CCOCC4)OCO5)n4c3CCCC4)c3ccc(O)cc3)ccc21 [Example 94, N-(4-Hydroxyphenyl)-N-(1-methyl-1H-indazol-5-yl)-3-(6-{[(3S)-3-(morpholin-4-ylmethyl)-3,4-dihydroisoquinolin-2(1H)-yl]carbonyl}-1,3-benzodioxol-5-yl)-5,6,7,8-tetrahydroindolizine-1-carboxamide hydrochloride] | 8.16 nM |
| 6 nM | Cc1ccc(C(=O)N2Cc3ccccc3C[C@H]2CN2CCOCC2)c(-c2cc(C(=O)N(c3ccc(O)cc3)c3ccc4c(ccn4C)c3)c3n2CCCC3)c1 [Example 95, N-(4-Hydroxyphenyl)-N-(1-methyl-1H-indol-5-yl)-3-(5-methyl-2-{[(3S)-3-(morpholin-4-ylmethyl)-3,4-dihydroisoquinolin-2(1H)-yl]carbonyl}phenyl)-5,6,7,8-tetrahydroindolizine-1-carboxamide hydrochloride] | 13.5 nM |
| 20 nM | Cc1ccc(N(C(=O)c2cc(-c3cc(Cl)ccc3C(=O)N3Cc4ccccc4C[C@H]3CN3CCOCC3)n3c2CCCC3)c2ccc(O)cc2)cc1Cl [Example 97, N-(3-Chloro-4-methylphenyl)-3-(5-chloro-2-{[(3S)-3-(morpholin-4-ylmethyl)-3,4-dihydroisoquinolin-2(1H)-yl]carbonyl}phenyl)-N-(4-hydroxyphenyl)-5,6,7,8-tetrahydroindolizine-1-carboxamide hydrochloride] | 45.4 nM |
| 12 nM | Cc1ccc(N(C(=O)c2cc(-c3cc(F)ccc3C(=O)N3Cc4ccccc4C[C@H]3CN3CCOCC3)n3c2COCC3)c2ccc(O)cc2)cc1F [Example 98, N-(3-Fluoro-4-methylphenyl)-6-(5-fluoro-2-{[(3S)-3-(morpholin-4-ylmethyl)-3,4-dihydroisoquinolin-2(1H)-yl]carbonyl}phenyl)-N-(4-hydroxyphenyl)-3,4-dihydro-1H-pyrrolo[2,1-c][1,4]oxazine-8-carboxamide hydrochloride] | 73.5 nM |
| 25 nM | O=C(c1cc(-c2cc(F)ccc2C(=O)N2Cc3ccccc3C[C@H]2CN2CCOCC2)n2c1COCC2)N(c1ccc(O)cc1)c1ccc(F)cc1 [Example 99, 6-(5-Fluoro-2-{[(3S)-3-(morpholin-4-ylmethyl)-3,4-dihydroisoquinolin-2(1H)-yl]carbonyl}phenyl)-N-(4-fluorophenyl)-N-(4-hydroxyphenyl)-3,4-dihydro-1H-pyrrolo[2,1-c][1,4]oxazine-8-carboxamide hydrochloride] | 213 nM |
| 22 nM | O=C(c1cc(-c2cc(F)ccc2C(=O)N2Cc3ccccc3C[C@H]2CN2CCOCC2)n2c1CC(O)CC2)N(c1ccccc1)c1ccc(O)cc1 (stereo partly drawn) [Example 100, 3-(5-Fluoro-2-{[(3S)-3-(morpholin-4-ylmethyl)-3,4-dihydroisoquinolin-2(1H)-yl]carbonyl}phenyl)-7-hydroxy-N-(4-hydroxyphenyl)-N-phenyl-5,6,7,8-tetrahydroindolizine-1-carboxamide hydrochloride] | 856 nM |
| 5 nM | Cn1ncc2cc(N(C(=O)c3cc(-c4cc(Cl)ccc4C(=O)N4Cc5ccccc5C[C@H]4CN4CCOCC4)n4c3COCC4)c3ccc(O)cc3)ccc21 [Example 101, 6-(5-Chloro-2-{[(3S)-3-(morpholin-4-ylmethyl)-3,4-dihydroisoquinolin-2(1H)-yl]carbonyl}phenyl)-N-(4-hydroxyphenyl)-N-(1-methyl-1H-indazol-5-yl)-3,4-dihydro-1H-pyrrolo[2,1-c][1,4]oxazine-8-carboxamide hydrochloride] | 22.1 nM |
| 6 nM | Cn1ccc2cc(N(C(=O)c3cc(-c4cc(Cl)ccc4C(=O)N4Cc5ccccc5C[C@H]4CN4CCOCC4)n4c3CCCC4)c3ccc(O)cc3)cnc21 [Example 103, 3-(5-Chloro-2-{[(3S)-3-(morpholin-4-ylmethyl)-3,4-dihydroisoquinolin-2(1H)-yl]carbonyl}phenyl)-N-(4-hydroxyphenyl)-N-(1-methyl-1H-pyrrolo[2,3-b]-pyridin-5-yl)-5,6,7,8-tetrahydroindolizine-1-carboxamide] | 16.8 nM |
| 7 nM | COc1ccc(C(=O)N2Cc3ccccc3C[C@H]2CN2CCOCC2)c(-c2cc(C(=O)N(c3ccc(O)cc3)c3ccc4c(cnn4C)c3)c3n2CCCC3)c1 [Example 104, N-(4-Hydroxyphenyl)-3-(5-methoxy-2-{[(3S)-3-(morpholin-4-ylmethyl)-3,4-dihydroisoquinolin-2(1H)-yl]carbonyl}phenyl)-N-(1-methyl-1H-indazol-5-yl)-5,6,7,8-tetrahydroindolizine-1-carboxamide hydrochloride] | 21.6 nM |
| 10 nM | COCCN1CCN(C[C@@H]2Cc3ccccc3CN2C(=O)c2cc3c(cc2-c2cc(C(=O)N(c4ccccc4)c4ccc(O)cc4)c4n2CCCC4)OCO3)CC1 [Example 105, N-(4-Hydroxyphenyl)-3-(6-{[(3S)-3-{[4-(2-methoxyethyl)piperazin-1-yl]methyl}-3,4-dihydroisoquinolin-2(1H)-yl]carbonyl}-1,3-benzodioxol-5-yl)-N-phenyl-5,6,7,8-tetrahydroindolizine-1-carboxamide bis(hydrochloride)] | 28.9 nM |
| 7 nM | CN1CCN(C[C@@H]2Cc3ccccc3CN2C(=O)c2ccc(Cl)cc2-c2cc(C(=O)N(c3ccc(O)cc3)c3ccc4c(ccn4C)c3)c3n2CCCC3)CC1=O [Example 107, 3-(5-Chloro-2-{[(3S)-3-[(4-methyl-3-oxopiperazin-1-yl)methyl]-3,4-dihydroisoquinolin-2(1H)-yl]carbonyl}phenyl)-N-(4-hydroxyphenyl)-N-(1-methyl-1H-indol-5-yl)-5,6,7,8-tetrahydroindolizine-1-carboxamide hydrochloride] | 8.29 nM |
| 9 nM | COCCN(C)C[C@@H]1Cc2ccccc2CN1C(=O)c1ccc(Cl)cc1-c1cc(C(=O)N(c2ccc(O)cc2)c2ccc3c(ccn3C)c2)c2n1CCCC2 [Example 108, 3-(5-Chloro-2-{[(3S)-3-{[(2-methoxyethyl)(methyl)amino]methyl}-3,4-dihydroisoquinolin-2(1H)-yl]carbonyl}phenyl)-N-(4-hydroxyphenyl)-N-(1-methyl-1H-indol-5-yl)-5,6,7,8-tetrahydroindolizine-1-carboxamide hydrochloride] | 36.4 nM |
| 30 nM | O=C(c1cc(-c2cc3c(cc2C(=O)N2Cc4ccccc4C[C@H]2C[N+]2([O-])CCOCC2)OCO3)n2c1CCCC2)N(c1ccccc1)c1ccc(O)cc1 [Example 109, N-(4-Hydroxyphenyl)-3-(6-{[(3S)-3-[(4-oxidomorpholin-4-yl)methyl]-3,4-dihydroisoquinolin-2(1H)-yl]carbonyl}-1,3-benzodioxol-5-yl)-N-phenyl-5,6,7,8-tetrahydroindolizine-1-carboxamide] | 483 nM |
| 29 nM | CCN(CCOC)C[C@@H]1Cc2ccccc2CN1C(=O)c1ccc(Cl)cc1-c1cc(C(=O)N(c2ccc(O)cc2)c2ccc3c(ccn3C)c2)c2n1CCCC2 [Example 110, 3-(5-Chloro-2-{[(3S)-3-{[ethyl(2-methoxyethyl)amino]methyl}-3,4-dihydroisoquinolin-2(1H)-yl]carbonyl}phenyl)-N-(4-hydroxyphenyl)-N-(1-methyl-1H-indol-5-yl)-5,6,7,8-tetrahydroindolizine-1-carboxamide hydrochloride] | 129 nM |
| 15 nM | O=C(c1cc(-c2cc(Cl)ccc2C(=O)N2Cc3ccccc3C[C@H]2CN2CCOCC2)n2c1CCCC2)N(c1ccc(O)cc1)c1ccc(F)cc1 [Example 111, 3-(5-Chloro-2-{[(3S)-3-(morpholin-4-ylmethyl)-3,4-dihydroisoquinolin-2(1H)-yl]carbonyl}phenyl)-N-(4-fluorophenyl)-N-(4-hydroxyphenyl)-5,6,7,8-tetrahydroindolizine-1-carboxamide hydrochloride] | 81.5 nM |
| 9 nM | COc1ccc(C(=O)N2Cc3ccccc3C[C@H]2CN2CCOCC2)c(-c2cc(C(=O)N(c3ccccc3)c3ccc(O)cc3)c3n2CCCC3)c1 [Example 112, N-(4-Hydroxyphenyl)-3-(5-methoxy-2-{[(3S)-3-(morpholin-4-ylmethyl)-3,4-dihydroisoquinolin-2(1H)-yl]carbonyl}phenyl)-N-phenyl-5,6,7,8-tetrahydroindolizine-1-carboxamide hydrochloride] | 139 nM |
| 16 nM | O=C(c1cc(-c2cc3c(cc2C(=O)N2Cc4ccccc4C[C@H]2CN2CCOCC2)OCO3)n2c1CC(O)CC2)N(c1ccccc1)c1ccc(O)cc1 (stereo partly drawn) [Example 113, 7-Hydroxy-N-(4-hydroxyphenyl)-3-(6-{[(3S)-3-(morpholin-4-ylmethyl)-3,4-dihydroisoquinolin-2(1H)-yl]carbonyl}-1,3-benzodioxol-5-yl)-N-phenyl-5,6,7,8-tetrahydroindolizine-1-carboxamide hydrochloride] | 190 nM |
| 9 nM | COc1ccc(C(=O)N2Cc3ccccc3C[C@H]2CN2CCOCC2)c(-c2cc(C(=O)N(c3ccc(O)cc3)c3ccc(C)c(F)c3)c3n2CCCC3)c1 [Example 114, N-(3-Fluoro-4-methylphenyl)-N-(4-hydroxyphenyl)-3-(5-methoxy-2-{[(3S)-3-(morpholin-4-ylmethyl)-3,4-dihydroisoquinolin-2(1H)-yl]carbonyl}phenyl)-5,6,7,8-tetrahydroindolizine-1-carboxamide hydrochloride] | 43.1 nM |

| Compound | IC50 [1] | IC50 [2] |
| --- | --- | --- |
| Cn1ccc2cc(N(C(=O)c3cc(-c4cc5c(cc4C(=O)N4Cc6ccccc6C[C@H]4CN4CCOCC4)OCO5)n4c3CCC4)c3ccc(O)cc3)ccc21 [Example 96, N-(4-Hydroxyphenyl)-N-(1-methyl-1H-indol-5-yl)-5-(6-{[(3S)-3-(morpholin-4-ylmethyl)-3,4-dihydroisoquinolin-2(1H)-yl]carbonyl}-1,3-benzodioxol-5-yl)-2,3-dihydro-1H-pyrrolizine-7-carboxamide hydrochloride] | 11 nM | 58.8 nM |
